Results as given in the supplement of paper PMC10307832.

How the values were obtained:
Test in all cases: relative viability (nuclei count vs DMSO), 5 days (fraction); higher = more cells survive
Zosuquidar + Palbociclib = compound: O[C@@H](COc1cccc2ncccc12)CN1CCN([C@@H]2c3ccccc3[C@@H]3[C@H](c4ccccc42)C3(F)F)CC1 [Zosuquidar] + CC(=O)c1c(C)c2cnc(Nc3ccc(N4CCNCC4)cn3)nc2n(C2CCCC2)c1=O [Palbociclib] (partner 0.5 µM)
Procedure, shortened: (§1)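 Relative viability divides the nuclei count in treated wells by that in vehicle wells. Lung cancer cell lines were seeded in 1536-well plates, dosed by pin tool the next day, and fixed and stained after 5 days in one step with final 0.05% Triton X-100, 1% formaldehyde and 1 ug/ml Hoechst. Dosing was a single drug or a fixed anchor-drug dose plus five library-drug doses (not always all listed) in √10 steps, and values are medians of duplicate plates imaged at 4×.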

[1] = compound: COc1cc2nccc(Oc3ccc(NC(=O)C4(C(=O)Nc5ccc(F)cc5)CC4)cc3)c2cc1OC [Cabozantinib] + C[C@]1(O)C[C@@H](c2nc(-c3ccc4ccc(-c5ccccc5)nc4c3)c3c(N)nccn32)C1 [Linsitinib] (partner 1 µM)
Procedure, shortened: as §1

[2] = compound: COc1cc2nccc(Oc3ccc(NC(=O)C4(C(=O)Nc5ccc(F)cc5)CC4)cc3)c2cc1OC [Cabozantinib] + CC(=O)c1c(C)c2cnc(Nc3ccc(N4CCNCC4)cn3)nc2n(C2CCCC2)c1=O [Palbociclib] (partner 0.5 µM)
Procedure, shortened: as §1

Kobe2602 + AZD7762 = compound: C1=CC(=CC=C1NC(=S)NNC2=C(C=C(C=C2[N+](=O)[O-])C(F)(F)F)[N+](=O)[O-])F [Kobe2602] + NC(=O)Nc1cc(-c2cccc(F)c2)sc1C(=O)N[C@H]1CCCNC1 [AZD7762] (partner 0.2 µM)
Procedure, shortened: as §1

Row | Cell Line | relative viability (Zosuquidar + Palbociclib; first compound 0.01 µM) | relative viability (Zosuquidar + Palbociclib; first compound 0.03162 µM) | relative viability (Zosuquidar + Palbociclib; first compound 0.3162 µM) | relative viability (Zosuquidar + Palbociclib; first compound 1 µM) | relative viability ([1]; first compound 0.06325 µM) | relative viability ([1]; first compound 0.2 µM) | relative viability ([1]; first compound 0.6325 µM) | relative viability ([1]; first compound 2 µM) | relative viability ([2]; first compound 0.02 µM) | relative viability ([2]; first compound 0.06325 µM) | relative viability ([2]; first compound 0.2 µM) | relative viability ([2]; first compound 0.6325 µM) | relative viability ([2]; first compound 2 µM) | relative viability (Kobe2602 + AZD7762; first compound 0.2 µM) | relative viability (Kobe2602 + AZD7762; first compound 0.6325 µM) | relative viability (Kobe2602 + AZD7762; first compound 2 µM) | relative viability (Kobe2602 + AZD7762; first compound 6.325 µM) | relative viability (Kobe2602 + AZD7762; first compound 20 µM) | relative viability (Zosuquidar + Palbociclib; first compound 0.1 µM) | relative viability ([1]; first compound 0.02 µM)
1 | LCLC-97TM1 | 0.227 | 0.274 | 0.193 | 0.215 | 0.187 | 0.2 | 0.195 | 0.204 | 0.189 | 0.228 | 0.221 | 0.253 | 0.222 | 0.364 | 0.303 | 0.341 | 0.279 | 0.37 | – | –
2 | LCLC-103H | 0.453 | 0.717 | 0.489 | 0.482 | 1.01 | 1.07 | 0.986 | 1.05 | 0.492 | 0.463 | 0.464 | 0.434 | 0.435 | 0.76 | 0.842 | 0.791 | 0.848 | 0.81 | 0.513 | 1.21
3 | LK-2 | 0.666 | 0.722 | 0.768 | 0.715 | 0.73 | 0.619 | 0.633 | 0.716 | – | 0.969 | 0.704 | 0.69 | 0.636 | 0.464 | 0.385 | 0.427 | 0.302 | 0.553 | 0.563 | 0.724
4 | LOU-NH91 | 0.488 | 0.539 | 0.552 | 0.499 | 1.09 | 0.537 | 0.939 | 0.95 | 0.527 | 0.518 | 0.558 | 0.549 | 0.557 | 0.739 | 0.792 | 0.717 | 0.758 | 0.716 | 0.529 | 0.928
5 | LU99A | 0.342 | 0.37 | 0.459 | 0.353 | 0.513 | 0.516 | 0.452 | 0.435 | 0.381 | 0.419 | 0.447 | 0.39 | 0.362 | 0.356 | 0.381 | 0.31 | 0.279 | 0.356 | 0.473 | 0.547
6 | LXF-289 | 0.576 | 0.599 | 0.582 | 0.584 | 0.966 | 0.971 | 0.983 | 0.94 | 0.582 | 0.625 | 0.532 | 0.618 | 0.559 | 1.06 | 1.08 | 1.08 | 1.06 | 1.08 | 0.614 | 1.02
7 | NCI-H23 | 0.45 | – | 0.578 | 0.524 | 0.687 | 0.561 | 0.473 | 0.48 | – | 0.541 | 0.579 | 0.541 | 0.437 | 0.332 | 0.312 | 0.217 | 0.197 | 0.182 | 0.516 | –
8 | NCI-H322M | 0.458 | 0.485 | 0.463 | 0.468 | 1 | – | 0.96 | 0.954 | 0.533 | 0.565 | 0.446 | 0.498 | 0.454 | 0.604 | 0.52 | 0.474 | 0.72 | 0.587 | 0.475 | 0.95
9 | NCI-H358 | 0.119 | 0.148 | 0.16 | 0.136 | 0.868 | 0.851 | 0.735 | 0.736 | 0.112 | 0.138 | 0.163 | 0.135 | 0.135 | 0.608 | 0.486 | 0.522 | 0.618 | 0.552 | 0.132 | 0.833
10 | NCI-H441 | 0.239 | 0.223 | 0.281 | 0.242 | 0.721 | 0.686 | 0.46 | 0.418 | 0.157 | 0.286 | 0.181 | 0.23 | 0.184 | 1.1 | 1.11 | 1.13 | 1.13 | 1.06 | 0.216 | 0.53
11 | NCI-H460 | 0.15 | 0.18 | 0.171 | 0.19 | 0.89 | 0.83 | 0.805 | 0.797 | 0.168 | 0.243 | 0.245 | 0.187 | 0.165 | 0.64 | 0.756 | 0.681 | 0.652 | 0.56 | 0.203 | 0.941
12 | NCI-H647 | 0.386 | 0.406 | 0.377 | 0.361 | 1.53 | 1.33 | 1.12 | 1.11 | 0.47 | 0.456 | 0.406 | 0.335 | 0.358 | 0.681 | 0.645 | 0.423 | 0.532 | 0.454 | 0.452 | 1.28
13 | NCI-H650 | 0.305 | 0.327 | 0.364 | 0.378 | 1.02 | 1.05 | 0.971 | 0.774 | 0.343 | 0.325 | 0.339 | 0.317 | 0.296 | 0.843 | 1.14 | 0.924 | 0.971 | 1.06 | 0.331 | 0.846
14 | NCI-H727 | 0.596 | 0.607 | 0.599 | 0.668 | 0.231 | 0.282 | 0.22 | 0.309 | 0.648 | 0.689 | 0.577 | 0.62 | 0.616 | 0.57 | 0.519 | 0.532 | – | 0.644 | – | 0.323
15 | NCI-H838 | 0.217 | 0.223 | 0.225 | 0.227 | 1.04 | 1.1 | 0.943 | 0.821 | 0.216 | 0.244 | 0.231 | 0.218 | 0.21 | 0.918 | 1.01 | 0.874 | 0.915 | 0.898 | 0.218 | 1.03
